Measured values as given in patent US20230172206A1 (BASF SE, priority 2020, published 2023).

The molecules below were run on Phakopsora pachyrhizi (F129L) (assay: Protective control of soybean rust on soybeans (PHAKPA P2)). Settings: protective P2, 4 ppm, soybean rust F129L isolate.
Assay type: in vivo

SMILES	% PHAKPA (F129L) Disease level P2 at 4 ppm
CO/N=C(/C(=O)OC)c1cccc(C)c1CO/N=C(\C)c1ccc(OC(F)(F)F)cc1F [compound 269]	5%
CNC(=O)/C(=N/OC)c1cccc(C)c1CO/N=C(\C)c1ccc(OC(F)(F)F)cc1F [compound 270]	3%
CNC(=O)/C(=N/OC)c1cccc(C)c1CO/N=C(\C)c1ccccc1COC [compound 277]	100%
CNC(=O)/C(=N/OC)c1cccc(C)c1CO/N=C(\C)c1cc(C)ccc1C [compound 278]	90%
CO/N=C(/C(=O)OC)c1cccc(C)c1CO/N=C(\C)c1c(F)cccc1Cl [compound 283]	83%
CNC(=O)/C(=N/OC)c1cccc(C)c1CO/N=C(\C)c1c(F)cccc1Cl [compound 284]	63%
CO/N=C(/C(=O)OC)c1cccc(C)c1CO/N=C(\C)c1c(C)cccc1F [compound 285]	87%
C#Cc1cc(F)ccc1/C(C)=N/OCc1c(C)cccc1/C(=N\OC)C(=O)NC [compound 286]	67%
CNC(=O)/C(=N/OC)c1cccc(C)c1CO/N=C(\C)c1ccccc1C1CC1(F)F (centres unmarked) [compound 288]	87%
CNC(=O)/C(=N/OC)c1cccc(C)c1CO/N=C(\C)c1c(Cl)cccc1C(F)(F)F [compound 290]	92%
CC/C(=N\OCc1c(C)cccc1/C(=N\OC)C(=O)NC)c1ccccc1 [compound 294]	1%
CNC(=O)/C(=N/OC)c1cccc(C)c1CO/N=C(\COC)c1ccccc1 [compound 295]	2%
CNC(=O)/C(=N/OC)c1cccc(C)c1CO/N=C(\C)c1ccccc1C1(C)CC1 [compound 296]	100%
CO/N=C(/C(=O)OC)c1cccc(C)c1CO/N=C(\C)c1cccc(C2CC2)c1 [compound 297]	90%
CNC(=O)/C(=N/OC)c1cccc(C)c1CO/N=C(\C)c1ccccc1C(F)F [compound 298]	63%
CNC(=O)/C(=N/OC)c1cccc(C)c1CO/N=C(\C)c1cccc(C2CC2)c1 [compound 299]	53%
CO/N=C(/C(=O)OC)c1cccc(C)c1CO/N=C(\C)c1cccc(C(C)(F)F)c1 [compound 302]	47%
CNC(=O)/C(=N/OC)c1cccc(C)c1CO/N=C(\C)c1cccc(C(C)(F)F)c1 [compound 303]	2%

Same assay, conditions: protective P2, 16 ppm, soybean rust F129L isolate

SMILES	% PHAKPA (F129L) Disease level P2 at 16 ppm
CO/N=C(/C(=O)OC)c1cccc(C)c1CO/N=C(\C)c1ccc(OC(F)(F)F)cc1F [compound 269]	0%
CNC(=O)/C(=N/OC)c1cccc(C)c1CO/N=C(\C)c1ccc(OC(F)(F)F)cc1F [compound 270]	0%
CNC(=O)/C(=N/OC)c1cccc(C)c1CO/N=C(\C)c1ccccc1COC [compound 277]	60%
CNC(=O)/C(=N/OC)c1cccc(C)c1CO/N=C(\C)c1cc(C)ccc1C [compound 278]	60%
CNC(=O)/C(=N/OC)c1cccc(C)c1CO/N=C(\C)c1cccc(N2CC(F)(F)C2)c1 [compound 282]	15%
CO/N=C(/C(=O)OC)c1cccc(C)c1CO/N=C(\C)c1c(F)cccc1Cl [compound 283]	30%
CNC(=O)/C(=N/OC)c1cccc(C)c1CO/N=C(\C)c1c(F)cccc1Cl [compound 284]	44%
CO/N=C(/C(=O)OC)c1cccc(C)c1CO/N=C(\C)c1c(C)cccc1F [compound 285]	50%
C#Cc1cc(F)ccc1/C(C)=N/OCc1c(C)cccc1/C(=N\OC)C(=O)NC [compound 286]	15%
CNC(=O)/C(=N/OC)c1cccc(C)c1CO/N=C(\C)c1ccccc1C1CC1(F)F (centres unmarked) [compound 288]	30%
CNC(=O)/C(=N/OC)c1cccc(C)c1CO/N=C(\C)c1c(Cl)cccc1C(F)(F)F [compound 290]	14%
CC/C(=N\OCc1c(C)cccc1/C(=N\OC)C(=O)NC)c1ccccc1 [compound 294]	1%
CNC(=O)/C(=N/OC)c1cccc(C)c1CO/N=C(\COC)c1ccccc1 [compound 295]	0%
CNC(=O)/C(=N/OC)c1cccc(C)c1CO/N=C(\C)c1ccccc1C1(C)CC1 [compound 296]	40%
CO/N=C(/C(=O)OC)c1cccc(C)c1CO/N=C(\C)c1cccc(C2CC2)c1 [compound 297]	37%
CNC(=O)/C(=N/OC)c1cccc(C)c1CO/N=C(\C)c1ccccc1C(F)F [compound 298]	7%
CNC(=O)/C(=N/OC)c1cccc(C)c1CO/N=C(\C)c1cccc(C2CC2)c1 [compound 299]	13%
CO/N=C(/C(=O)OC)c1cccc(C)c1CO/N=C(\C)c1cccc(C(C)(F)F)c1 [compound 302]	4%
CNC(=O)/C(=N/OC)c1cccc(C)c1CO/N=C(\C)c1cccc(C(C)(F)F)c1 [compound 303]	0%

What follows are molecules tested on Phakopsora pachyrhizi (F129L) (assay: Protective control of soybean rust on soybeans (PHAKPA P6)). Settings: protective P6, 4 ppm, soybean rust F129L isolate.
Assay type: in vivo

SMILES	% PHAKPA (F129L) Disease level P6 at 4 ppm
CO/N=C(/C(=O)OC)c1cccc(C)c1CO/N=C(\C)c1ccc(OC(F)(F)F)cc1F [compound 269]	18%
CNC(=O)/C(=N/OC)c1cccc(C)c1CO/N=C(\C)c1ccc(OC(F)(F)F)cc1F [compound 270]	0%
CNC(=O)/C(=N/OC)c1cccc(C)c1CO/N=C(\C)c1ccccc1COC [compound 277]	100%
CNC(=O)/C(=N/OC)c1cccc(C)c1CO/N=C(\C)c1cc(C)ccc1C [compound 278]	90%
CO/N=C(/C(=O)OC)c1cccc(C)c1CO/N=C(\C)c1c(F)cccc1Cl [compound 283]	87%
CNC(=O)/C(=N/OC)c1cccc(C)c1CO/N=C(\C)c1c(F)cccc1Cl [compound 284]	62%
CO/N=C(/C(=O)OC)c1cccc(C)c1CO/N=C(\C)c1c(C)cccc1F [compound 285]	90%
C#Cc1cc(F)ccc1/C(C)=N/OCc1c(C)cccc1/C(=N\OC)C(=O)NC [compound 286]	97%
CNC(=O)/C(=N/OC)c1cccc(C)c1CO/N=C(\C)c1ccccc1C1CC1(F)F (centres unmarked) [compound 288]	97%
CNC(=O)/C(=N/OC)c1cccc(C)c1CO/N=C(\C)c1c(Cl)cccc1C(F)(F)F [compound 290]	83%
CC/C(=N\OCc1c(C)cccc1/C(=N\OC)C(=O)NC)c1ccccc1 [compound 294]	2%
CNC(=O)/C(=N/OC)c1cccc(C)c1CO/N=C(\COC)c1ccccc1 [compound 295]	11%
CNC(=O)/C(=N/OC)c1cccc(C)c1CO/N=C(\C)c1ccccc1C1(C)CC1 [compound 296]	100%
CO/N=C(/C(=O)OC)c1cccc(C)c1CO/N=C(\C)c1cccc(C2CC2)c1 [compound 297]	87%
CNC(=O)/C(=N/OC)c1cccc(C)c1CO/N=C(\C)c1ccccc1C(F)F [compound 298]	97%
CNC(=O)/C(=N/OC)c1cccc(C)c1CO/N=C(\C)c1cccc(C2CC2)c1 [compound 299]	53%
CO/N=C(/C(=O)OC)c1cccc(C)c1CO/N=C(\C)c1cccc(C(C)(F)F)c1 [compound 302]	47%
CNC(=O)/C(=N/OC)c1cccc(C)c1CO/N=C(\C)c1cccc(C(C)(F)F)c1 [compound 303]	12%

Same assay, conditions: protective P6, 16 ppm, soybean rust F129L isolate

SMILES	% PHAKPA (F129L) Disease level P6 at 16 ppm
CO/N=C(/C(=O)OC)c1cccc(C)c1CO/N=C(\C)c1ccc(OC(F)(F)F)cc1F [compound 269]	0%
CNC(=O)/C(=N/OC)c1cccc(C)c1CO/N=C(\C)c1ccc(OC(F)(F)F)cc1F [compound 270]	1%
CNC(=O)/C(=N/OC)c1cccc(C)c1CO/N=C(\C)c1ccccc1COC [compound 277]	100%
CNC(=O)/C(=N/OC)c1cccc(C)c1CO/N=C(\C)c1cc(C)ccc1C [compound 278]	93%
CNC(=O)/C(=N/OC)c1cccc(C)c1CO/N=C(\C)c1cccc(N2CC(F)(F)C2)c1 [compound 282]	18%
CO/N=C(/C(=O)OC)c1cccc(C)c1CO/N=C(\C)c1c(F)cccc1Cl [compound 283]	22%
CNC(=O)/C(=N/OC)c1cccc(C)c1CO/N=C(\C)c1c(F)cccc1Cl [compound 284]	34%
CO/N=C(/C(=O)OC)c1cccc(C)c1CO/N=C(\C)c1c(C)cccc1F [compound 285]	35%
C#Cc1cc(F)ccc1/C(C)=N/OCc1c(C)cccc1/C(=N\OC)C(=O)NC [compound 286]	27%
CNC(=O)/C(=N/OC)c1cccc(C)c1CO/N=C(\C)c1ccccc1C1CC1(F)F (centres unmarked) [compound 288]	20%
CNC(=O)/C(=N/OC)c1cccc(C)c1CO/N=C(\C)c1c(Cl)cccc1C(F)(F)F [compound 290]	21%
CC/C(=N\OCc1c(C)cccc1/C(=N\OC)C(=O)NC)c1ccccc1 [compound 294]	0%
CNC(=O)/C(=N/OC)c1cccc(C)c1CO/N=C(\COC)c1ccccc1 [compound 295]	0%
CNC(=O)/C(=N/OC)c1cccc(C)c1CO/N=C(\C)c1ccccc1C1(C)CC1 [compound 296]	83%
CO/N=C(/C(=O)OC)c1cccc(C)c1CO/N=C(\C)c1cccc(C2CC2)c1 [compound 297]	37%
CNC(=O)/C(=N/OC)c1cccc(C)c1CO/N=C(\C)c1ccccc1C(F)F [compound 298]	37%
CNC(=O)/C(=N/OC)c1cccc(C)c1CO/N=C(\C)c1cccc(C2CC2)c1 [compound 299]	22%
CO/N=C(/C(=O)OC)c1cccc(C)c1CO/N=C(\C)c1cccc(C(C)(F)F)c1 [compound 302]	3%
CNC(=O)/C(=N/OC)c1cccc(C)c1CO/N=C(\C)c1cccc(C(C)(F)F)c1 [compound 303]	0%
